From patent US11351172B2, “Pharmaceutical composition and use for applying ribociclib in phosphodiesterase 4-mediated disease treatment of patient and inhibition of phosphodiesterase 4 activity” (Chang Gung University, priority 2019, dated 2022)

Tests used:
PDE3B = biological target: T1, PDE3B (Homo sapiens, UniProt Q13370); experiment: PDE enzymatic activity, HTRF cAMP dynamic test; type: biochemical; settings: 0.1 to 30 μM; FIG. 1E
T1 construct: purchased BPS bioscience
Protocol: (§1) Enzymatic activities of PDE subtypes were analyzed according to the user manual of HTRF® package insert cAMP dynamic tests (Cisbio bioassays, catalog number 62AM4PEB). Ribociclib was dissolved in DMSO (as solvent) and then added to PDE assay buffer which contains PDE4A, PDE4B, PDE4C, PDE4D, PDE3B or PDE7A (sold by BPS bioscience). The final concentration of Ribociclib was 0.1 to 30 μM. Then, the mixtures were incubated for 10 minutes at 37° C. PDE assay buffer which was added by DMSO (solvent, marked as “−” in FIGS. 1A-1F) instead of Ribociclib was as a control in this experiment. 60 nM of cAMP was added to each reagent and then incubated for 45 minutes at 37° C. After incubation, cAMP-d2 and anti-cAMP-cryptate were added to each reagent and react at room temperature for 1 hour away from light. Finally, the reagents were quantified by the luminometer (TECAN infinite 200 Pro) to detect enzymatic activities of PDE subtypes.

PDE4A = biological target: T2, PDE4A (Homo sapiens, UniProt P27815); experiment: PDE enzymatic activity, HTRF cAMP dynamic test; type: biochemical; settings: 0.1 μM, 0.3 μM, 1 μM, 3 μM and 10 μM; compared with DMSO control; n=6; FIG. 1A
T2 construct: purchased BPS bioscience
T2 sequence (P27815 whole entry): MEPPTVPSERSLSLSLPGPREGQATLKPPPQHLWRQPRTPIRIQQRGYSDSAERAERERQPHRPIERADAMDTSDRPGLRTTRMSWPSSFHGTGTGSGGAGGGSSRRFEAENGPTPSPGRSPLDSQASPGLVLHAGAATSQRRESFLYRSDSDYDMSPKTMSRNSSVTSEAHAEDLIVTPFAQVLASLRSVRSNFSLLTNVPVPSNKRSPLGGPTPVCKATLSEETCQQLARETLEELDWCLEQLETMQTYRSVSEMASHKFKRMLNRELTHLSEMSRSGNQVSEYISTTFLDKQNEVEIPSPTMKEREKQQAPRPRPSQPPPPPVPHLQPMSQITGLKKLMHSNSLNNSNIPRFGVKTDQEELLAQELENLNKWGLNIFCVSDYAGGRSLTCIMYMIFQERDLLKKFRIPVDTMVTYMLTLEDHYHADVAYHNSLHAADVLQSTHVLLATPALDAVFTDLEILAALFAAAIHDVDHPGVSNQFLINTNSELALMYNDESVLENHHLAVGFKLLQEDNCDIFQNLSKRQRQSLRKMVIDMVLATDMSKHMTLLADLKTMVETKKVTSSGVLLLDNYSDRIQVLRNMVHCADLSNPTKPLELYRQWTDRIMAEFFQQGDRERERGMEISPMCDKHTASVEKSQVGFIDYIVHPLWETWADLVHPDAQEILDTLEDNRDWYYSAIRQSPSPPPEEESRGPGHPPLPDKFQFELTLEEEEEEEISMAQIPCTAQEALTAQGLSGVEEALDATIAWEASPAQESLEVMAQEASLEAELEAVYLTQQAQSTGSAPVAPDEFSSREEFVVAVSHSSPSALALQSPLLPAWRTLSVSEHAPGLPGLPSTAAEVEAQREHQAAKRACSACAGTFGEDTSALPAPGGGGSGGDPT
Protocol: as §1

PDE4B = biological target: T3, PDE4B (Homo sapiens, UniProt Q07343); experiment: PDE enzymatic activity, HTRF cAMP dynamic test; type: biochemical; settings: 3 μM, 10 μM and 30 μM; compared with DMSO control; n=6; FIG. 1B
T3 construct: purchased BPS bioscience
T3 sequence (Q07343 whole entry): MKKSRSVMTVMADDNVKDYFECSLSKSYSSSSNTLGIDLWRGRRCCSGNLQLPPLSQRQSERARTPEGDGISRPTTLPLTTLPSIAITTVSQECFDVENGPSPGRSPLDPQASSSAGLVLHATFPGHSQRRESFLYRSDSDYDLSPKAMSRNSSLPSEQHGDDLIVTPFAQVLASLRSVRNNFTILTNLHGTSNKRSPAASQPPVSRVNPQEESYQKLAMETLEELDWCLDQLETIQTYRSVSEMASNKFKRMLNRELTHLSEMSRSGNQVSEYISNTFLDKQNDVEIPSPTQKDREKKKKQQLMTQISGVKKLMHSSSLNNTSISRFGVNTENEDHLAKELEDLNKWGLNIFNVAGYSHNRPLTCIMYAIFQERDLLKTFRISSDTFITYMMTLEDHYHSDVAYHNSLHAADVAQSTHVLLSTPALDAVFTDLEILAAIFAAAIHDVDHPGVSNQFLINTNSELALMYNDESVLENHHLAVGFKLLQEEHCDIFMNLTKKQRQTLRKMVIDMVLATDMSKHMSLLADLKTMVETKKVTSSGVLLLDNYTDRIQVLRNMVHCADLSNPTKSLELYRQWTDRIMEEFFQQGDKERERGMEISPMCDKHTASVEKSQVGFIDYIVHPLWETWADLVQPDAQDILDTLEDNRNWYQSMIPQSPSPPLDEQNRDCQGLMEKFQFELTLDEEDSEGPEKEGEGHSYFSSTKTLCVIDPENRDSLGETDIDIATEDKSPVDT
Protocol: as §1

PDE4C = biological target: T4, PDE4C (Homo sapiens, UniProt Q08493); experiment: PDE enzymatic activity, HTRF cAMP dynamic test; type: biochemical; settings: 3 μM, 10 μM and 30 μM; compared with DMSO control; n=6; FIG. 1C
T4 construct: purchased BPS bioscience
T4 sequence (Q08493 whole entry): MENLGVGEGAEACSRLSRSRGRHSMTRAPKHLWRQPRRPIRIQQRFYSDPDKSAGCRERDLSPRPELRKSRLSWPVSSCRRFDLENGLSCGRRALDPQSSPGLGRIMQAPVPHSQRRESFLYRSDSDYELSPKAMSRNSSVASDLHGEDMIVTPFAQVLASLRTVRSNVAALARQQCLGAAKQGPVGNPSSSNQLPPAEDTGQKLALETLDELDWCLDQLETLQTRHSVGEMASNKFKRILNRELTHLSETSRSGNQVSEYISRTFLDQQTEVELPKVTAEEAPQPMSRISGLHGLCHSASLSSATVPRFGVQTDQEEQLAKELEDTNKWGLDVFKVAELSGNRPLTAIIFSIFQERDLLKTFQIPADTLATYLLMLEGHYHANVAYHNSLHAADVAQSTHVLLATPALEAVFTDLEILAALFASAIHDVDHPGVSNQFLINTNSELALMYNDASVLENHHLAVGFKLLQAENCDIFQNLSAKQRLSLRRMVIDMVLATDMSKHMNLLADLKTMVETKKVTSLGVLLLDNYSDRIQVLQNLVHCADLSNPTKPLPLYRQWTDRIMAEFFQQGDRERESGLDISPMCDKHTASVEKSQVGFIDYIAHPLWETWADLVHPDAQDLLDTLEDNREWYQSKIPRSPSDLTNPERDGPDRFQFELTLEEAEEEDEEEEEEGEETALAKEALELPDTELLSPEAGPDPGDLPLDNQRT
Protocol: as §1

PDE4D = biological target: T5, PDE4D (Homo sapiens, UniProt Q08499); experiment: PDE enzymatic activity, HTRF cAMP dynamic test; type: biochemical; settings: 10 μM and 30 μM; compared with DMSO control; n=6; FIG. 1D
T5 construct: purchased BPS bioscience
T5 sequence (Q08499 whole entry): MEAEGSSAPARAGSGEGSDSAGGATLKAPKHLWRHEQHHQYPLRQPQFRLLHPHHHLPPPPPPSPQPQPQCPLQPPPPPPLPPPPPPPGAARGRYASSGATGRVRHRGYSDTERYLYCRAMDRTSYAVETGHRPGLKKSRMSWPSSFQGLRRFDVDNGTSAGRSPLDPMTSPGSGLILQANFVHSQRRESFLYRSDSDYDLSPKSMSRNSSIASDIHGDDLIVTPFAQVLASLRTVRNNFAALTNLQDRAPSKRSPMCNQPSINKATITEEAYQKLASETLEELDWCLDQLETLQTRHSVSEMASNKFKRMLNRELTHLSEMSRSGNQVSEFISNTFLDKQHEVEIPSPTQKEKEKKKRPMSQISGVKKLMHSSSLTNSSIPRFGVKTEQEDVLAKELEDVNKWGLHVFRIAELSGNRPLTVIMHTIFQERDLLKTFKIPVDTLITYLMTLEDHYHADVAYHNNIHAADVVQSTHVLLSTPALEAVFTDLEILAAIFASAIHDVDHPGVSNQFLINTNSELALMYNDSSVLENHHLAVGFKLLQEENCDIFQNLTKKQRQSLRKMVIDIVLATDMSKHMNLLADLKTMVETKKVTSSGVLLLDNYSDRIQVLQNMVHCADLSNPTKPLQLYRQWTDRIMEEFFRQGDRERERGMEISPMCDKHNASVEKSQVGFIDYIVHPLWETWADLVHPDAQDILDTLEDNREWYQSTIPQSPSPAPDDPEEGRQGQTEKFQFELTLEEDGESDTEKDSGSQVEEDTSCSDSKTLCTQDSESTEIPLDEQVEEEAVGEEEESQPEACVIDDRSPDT
Protocol: as §1

PDE7A = biological target: T6, PDE7A (Homo sapiens, UniProt Q13946); experiment: PDE enzymatic activity, HTRF cAMP dynamic test; type: biochemical; settings: 0.1 to 30 μM; FIG. 1F
T6 construct: purchased BPS bioscience
T6 sequence (Q13946 whole entry): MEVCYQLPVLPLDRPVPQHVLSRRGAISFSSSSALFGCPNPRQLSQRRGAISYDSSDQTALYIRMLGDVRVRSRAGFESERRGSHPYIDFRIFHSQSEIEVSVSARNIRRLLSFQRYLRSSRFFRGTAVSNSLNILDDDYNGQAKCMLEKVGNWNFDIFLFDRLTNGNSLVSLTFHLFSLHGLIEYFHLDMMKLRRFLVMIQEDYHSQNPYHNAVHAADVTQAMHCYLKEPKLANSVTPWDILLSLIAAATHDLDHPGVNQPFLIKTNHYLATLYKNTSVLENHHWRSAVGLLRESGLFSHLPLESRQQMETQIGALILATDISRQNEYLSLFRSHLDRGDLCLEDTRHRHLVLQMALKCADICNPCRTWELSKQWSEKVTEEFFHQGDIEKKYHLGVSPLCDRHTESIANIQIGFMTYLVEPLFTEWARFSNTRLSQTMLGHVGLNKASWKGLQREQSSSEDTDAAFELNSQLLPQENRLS
Protocol: as §1

Human neutrophils = experiment: Superoxide anion generation in fMLF-stimulated neutrophils (ferricytochrome c reduction); type: cell-based; settings: 1 μM, 3 μM and 10 μM; fMLF (0.1 μM)/cytochalasin B (1 μg/ml) stimulated; p<0.001 vs control; n=6; FIG. 2
Protocol: The informed consent to participate which was approved by the Institutional Review Board are signed by the donors. 50 mL of blood was collected from the median cubital vein of each donor by sterile vacutainer, and was used to isolate neutrophils for the following experiments. Human neutrophils (isolated from whole blood of donors) were incubated with DMSO (as solvent, marked as “−” in the groups at X-axis in FIGS. 2A and 2B) or Ribociclib (0.3-10 μM) for 5 minutes, and then stimulated the neutrophils with or without fMLF (0.1 μM)/cytochalasin B (CB, 1 μg/ml) for another 10 minutes to activate the neutrophils. The absorbance (OD550) of the reaction mixture was then measured by a spectrophotometer at OD 550 nm. The reading of OD550 is used to detect the reduction of ferricytochrome c, which indicates the amount of superoxide anion. Cytochalasin B was sold by Sigma-Aldrich, catalog number #2506; fMLF was sold by Sigma-Aldrich, catalog number #454454; model number of the spectrophotometer is HITACHI U-3010.

IMQ-treated mice = experiment: Psoriasis-like symptoms in IMQ-treated mice; type: in vivo, BALB/c mice; settings: applied on back skin once per day for 5 days before IMQ, FIG. 3
Protocol: 250 μg or 500 μg of Ribociclib was dissolved in 50 μl of 0.5% (w/v) methylcellulose 400 solution to make a pharmaceutical composition. The Ribociclib concentration of the pharmaceutical composition was 250 μg/50 μl or 500 μg/50 μl and used in the subsequent animal experimental examples 4 and 5. Male BALB/c mice (7-9 weeks of age, the body weight of each mouse is about 25 g) were divided into different groups, and each group has 6 mice. Each mouse was epilation on the back and then treated with 50 μl of solvent (0.5% methylcellulose 400) or 50 μl of the pharmaceutical composition prepared in example 3 (the concentration of Ribociclib is 10 or 20 mg/kg of body weight) by applying on the nude back skin before topical treatment of imiquimod (IMQ, sold by 3M Health Care Limited). And then applying with or without IMQ on the nude back skin of mice to cause psoriasis-like symptom. Each treatment was given once per day for 5 consecutive days. The mice which applying solvent and IMQ is played as the control. The mice which merely applying solvent is played as the blank.

T1 sequence (Q13370 whole entry): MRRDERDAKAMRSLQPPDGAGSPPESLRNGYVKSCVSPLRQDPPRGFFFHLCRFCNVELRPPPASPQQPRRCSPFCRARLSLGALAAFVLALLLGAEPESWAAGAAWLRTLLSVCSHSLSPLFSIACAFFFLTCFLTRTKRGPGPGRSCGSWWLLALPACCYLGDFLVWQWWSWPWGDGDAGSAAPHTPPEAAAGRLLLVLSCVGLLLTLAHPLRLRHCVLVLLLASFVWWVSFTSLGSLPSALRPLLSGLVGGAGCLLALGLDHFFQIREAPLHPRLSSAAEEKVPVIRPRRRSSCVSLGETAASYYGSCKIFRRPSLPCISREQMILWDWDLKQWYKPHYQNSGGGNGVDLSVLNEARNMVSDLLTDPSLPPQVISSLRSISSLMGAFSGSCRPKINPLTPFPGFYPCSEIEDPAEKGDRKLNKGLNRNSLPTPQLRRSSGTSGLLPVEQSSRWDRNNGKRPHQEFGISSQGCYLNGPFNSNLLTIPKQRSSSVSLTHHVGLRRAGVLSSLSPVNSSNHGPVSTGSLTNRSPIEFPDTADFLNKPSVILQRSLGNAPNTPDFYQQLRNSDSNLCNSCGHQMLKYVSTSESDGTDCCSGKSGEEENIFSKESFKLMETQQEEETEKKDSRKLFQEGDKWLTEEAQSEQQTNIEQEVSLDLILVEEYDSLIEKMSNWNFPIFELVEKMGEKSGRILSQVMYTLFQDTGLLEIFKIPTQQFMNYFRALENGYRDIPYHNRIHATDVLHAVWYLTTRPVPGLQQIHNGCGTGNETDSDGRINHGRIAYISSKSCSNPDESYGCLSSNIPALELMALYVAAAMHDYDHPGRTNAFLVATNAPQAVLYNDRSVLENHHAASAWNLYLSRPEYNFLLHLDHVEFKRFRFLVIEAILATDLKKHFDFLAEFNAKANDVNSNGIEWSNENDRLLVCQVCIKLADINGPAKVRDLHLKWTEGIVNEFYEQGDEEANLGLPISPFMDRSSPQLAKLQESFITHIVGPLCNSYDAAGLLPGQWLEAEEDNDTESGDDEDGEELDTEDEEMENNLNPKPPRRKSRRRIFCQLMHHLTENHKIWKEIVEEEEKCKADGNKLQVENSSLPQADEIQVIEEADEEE

Structure (SMILES): CN(C)C(=O)c1cc2cnc(Nc3ccc(N4CCNCC4)cn3)nc2n1C1CCCC1 [Ribociclib, 7-Cyclopentyl-N,N-dimethyl-2-{[5-(1-piperazinyl)-2-pyridinyl]amino}-7H-pyrrolo[2,3-d]pyrimidine-6-carboxamide]
- PDE3B activity (PDE3B): would not inhibit
- PDE4A activity (PDE4A): significantly inhibit PDE4A activity
- PDE4B activity (PDE4B): significantly inhibit PDE4B activity
- PDE4C activity (PDE4C): significantly inhibit PDE4C activity
- PDE4D activity (PDE4D): significantly inhibit PDE4D activity
- PDE7A activity (PDE7A): would not inhibit
- generation of superoxide anion (Human neutrophils): significantly restrict the generation of superoxide anion
- psoriasis-like symptoms (IMQ-treated mice; 10 mg/kg of the body weight): can improve or cure the psoriasis-like symptoms
- psoriasis-like symptoms (IMQ-treated mice; 20 mg/kg of the body weight): can improve or cure the psoriasis-like symptoms
